Experimental data reported in PubChem BioAssay (NCI).
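Compound exposure: 48 hours, 5 concentrations, 96-well plates. TGI is the concentration that stops growth completely.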

Experiments:
Experiment in all cases: inhibition of tumour cell growth, NCI panel, 48 h
[1] = test system: SNB-19 CNS
[2] = test system: HCT-116 colon
[3] = test system: PC-3 prostate
[4] = test system: OVCAR-8 ovarian
[5] = test system: RXF 393 renal
[6] = test system: HCC-2998 colon
[7] = test system: UO-31 renal
[8] = test system: NCI-H226 lung
[9] = test system: IGROV1 ovarian
[10] = test system: 786-0 renal
[11] = test system: SK-OV-3 ovarian
[12] = test system: NCI-H460 lung
[13] = test system: MDA-MB-435
[14] = test system: COLO 205 colon
[15] = test system: SF-268 CNS
[16] = test system: BT-549 breast
[17] = test system: LOX IMVI melanoma
[18] = test system: RPMI-8226 leukemia
[19] = test system: A549 NSCLC
[20] = test system: A498 renal
[21] = test system: SN12C renal
[22] = test system: CCRF-CEM leukemia
[23] = test system: NCI-H23 lung
[24] = test system: SK-MEL-2 melanoma
[25] = test system: SF-295 CNS
[26] = test system: U251 CNS
[27] = test system: MDA-N
[28] = test system: SK-MEL-28 melanoma
[29] = test system: OVCAR-3 ovarian
[30] = test system: SW-620 colon
[31] = test system: DU-145 prostate
[32] = test system: M14 melanoma
[33] = test system: SNB-75 CNS
[34] = test system: KM12 colon
[35] = test system: ACHN renal
[36] = test system: T-47D breast
[37] = test system: HCT-15 colon
[38] = test system: HOP-92 NSCLC
[39] = test system: NCI/ADR-RES ovarian
[40] = test system: CAKI-1 renal
[41] = test system: MDA-MB-231 breast
[42] = test system: K-562 leukemia
[43] = test system: SK-MEL-5 melanoma
[44] = test system: UACC-257 melanoma
[45] = test system: HS 578T breast
[46] = test system: OVCAR-4 ovarian
[47] = test system: HT29 colon
[48] = test system: HOP-62 NSCLC
[49] = test system: MALME-3M melanoma
[50] = test system: TK-10 renal
[51] = test system: MOLT-4 leukemia
[52] = test system: UACC-62 melanoma
[53] = test system: NCI-H522 lung
[54] = test system: OVCAR-5 ovarian
[55] = test system: MCF7 breast
[56] = test system: HL-60(TB) leukemia
[57] = test system: SF-539 CNS
[58] = test system: EKVX NSCLC
[59] = test system: SR leukemia

SMILES: CCOC(=O)c1sc2nc(SC)nc3c2c1NCN3c1ccccc1Cl
- TGI [1]: > 100 µM
- TGI [2]: > 100 µM
- TGI [3]: > 100 µM
- TGI [4]: > 100 µM
- TGI [5]: 73 µM
- TGI [6]: > 100 µM
- TGI [7]: > 100 µM
- TGI [8]: > 100 µM
- TGI [9]: > 100 µM
- TGI [10]: > 100 µM
- TGI [11]: > 100 µM
- TGI [12]: > 100 µM
- TGI [13]: > 100 µM
- TGI [14]: > 100 µM
- TGI [15]: > 100 µM
- TGI [16]: > 100 µM
- TGI [17]: > 100 µM
- TGI [18]: > 100 µM
- TGI [19]: > 100 µM
- TGI [20]: > 100 µM
- TGI [21]: > 100 µM
- TGI [22]: > 100 µM
- TGI [23]: > 100 µM
- TGI [24]: > 100 µM
- TGI [25]: > 100 µM
- TGI [26]: > 100 µM
- TGI [27]: > 100 µM
- TGI [28]: > 100 µM
- TGI [29]: > 100 µM
- TGI [30]: > 100 µM
- TGI [31]: > 100 µM
- TGI [32]: > 100 µM
- TGI [33]: 64.9 µM
- TGI [34]: > 100 µM
- TGI [35]: > 100 µM
- TGI [36]: 60.3 µM
- TGI [37]: > 100 µM
- TGI [38]: 57.6 µM
- TGI [39]: > 100 µM
- TGI [40]: > 100 µM
- TGI [41]: > 100 µM
- TGI [42]: > 100 µM
- TGI [43]: > 100 µM
- TGI [44]: > 100 µM
- TGI [45]: 73.3 µM
- TGI [46]: > 100 µM
- TGI [47]: > 100 µM
- TGI [48]: > 100 µM
- TGI [49]: 74.4 µM
- TGI [50]: > 100 µM
- TGI [51]: > 100 µM
- TGI [52]: > 100 µM
- TGI [53]: 52.7 µM
- TGI [54]: > 100 µM

SMILES: CC(=O)Oc1c(OC(C)C)cc(=O)n2ccsc12
- TGI [1]: > 100 µM
- TGI [2]: > 100 µM
- TGI [55]: > 100 µM
- TGI [56]: 58.7 µM
- TGI [3]: > 100 µM
- TGI [4]: > 100 µM
- TGI [5]: > 100 µM
- TGI [6]: > 100 µM
- TGI [7]: > 100 µM
- TGI [57]: > 100 µM
- TGI [8]: > 100 µM
- TGI [9]: > 100 µM
- TGI [10]: > 100 µM
- TGI [11]: > 100 µM
- TGI [12]: > 100 µM
- TGI [13]: 31 µM
- TGI [14]: > 100 µM
- TGI [15]: > 100 µM
- TGI [16]: > 100 µM
- TGI [17]: > 100 µM
- TGI [18]: > 100 µM
- TGI [58]: > 100 µM
- TGI [19]: > 100 µM
- TGI [20]: > 100 µM
- TGI [21]: > 100 µM
- TGI [22]: 70.4 µM
- TGI [23]: > 100 µM
- TGI [24]: > 100 µM
- TGI [25]: > 100 µM
- TGI [26]: > 100 µM
- TGI [27]: > 100 µM
- TGI [28]: > 100 µM
- TGI [29]: > 100 µM
- TGI [30]: > 100 µM
- TGI [31]: > 100 µM
- TGI [32]: > 100 µM
- TGI [33]: > 100 µM
- TGI [34]: > 100 µM
- TGI [35]: > 100 µM
- TGI [37]: > 100 µM
- TGI [38]: > 100 µM
- TGI [39]: > 100 µM
- TGI [40]: > 100 µM
- TGI [41]: > 100 µM
- TGI [42]: > 100 µM
- TGI [43]: > 100 µM
- TGI [44]: > 100 µM
- TGI [45]: > 100 µM
- TGI [46]: > 100 µM
- TGI [47]: > 100 µM
- TGI [48]: > 100 µM
- TGI [49]: > 100 µM
- TGI [50]: > 100 µM
- TGI [51]: > 100 µM
- TGI [52]: > 100 µM
- TGI [53]: > 100 µM
- TGI [54]: > 100 µM

SMILES: COc1c(-c2nc3nc(N4CCN(C)CC4)ccc3[nH]2)cc(OC)c2c1nc(CCl)n2C
- TGI [1]: > 100 µM
- TGI [2]: > 100 µM
- TGI [56]: 53.5 µM
- TGI [3]: 28.2 µM
- TGI [4]: 50.5 µM
- TGI [5]: 33.8 µM
- TGI [6]: 31.2 µM
- TGI [7]: 32.8 µM
- TGI [57]: 20.7 µM
- TGI [8]: 66.1 µM
- TGI [9]: 36.8 µM
- TGI [10]: > 100 µM
- TGI [11]: 76.6 µM
- TGI [12]: 52.8 µM
- TGI [13]: 38.2 µM
- TGI [14]: 31.1 µM
- TGI [15]: 55.7 µM
- TGI [16]: 40.4 µM
- TGI [17]: 24 µM
- TGI [18]: 43.1 µM
- TGI [58]: 39.2 µM
- TGI [19]: 79.6 µM
- TGI [21]: > 100 µM
- TGI [22]: 62.1 µM
- TGI [23]: 47 µM
- TGI [24]: 29.3 µM
- TGI [25]: > 100 µM
- TGI [26]: 25.8 µM
- TGI [27]: > 100 µM
- TGI [28]: 71.7 µM
- TGI [29]: 81.5 µM
- TGI [30]: 64.3 µM
- TGI [31]: 78.2 µM
- TGI [32]: 33.7 µM
- TGI [33]: 29.8 µM
- TGI [34]: 30.8 µM
- TGI [35]: 26.9 µM
- TGI [36]: 38.9 µM
- TGI [37]: 90.6 µM
- TGI [38]: 41.9 µM
- TGI [39]: > 100 µM
- TGI [40]: 33.2 µM
- TGI [41]: 46.1 µM
- TGI [42]: > 100 µM
- TGI [44]: 78.3 µM
- TGI [45]: > 100 µM
- TGI [46]: 44.3 µM
- TGI [47]: 32.9 µM
- TGI [48]: 49.1 µM
- TGI [49]: 37.5 µM
- TGI [51]: 58.3 µM
- TGI [52]: 23.1 µM
- TGI [53]: 25.5 µM
- TGI [54]: 56.1 µM

SMILES: COc1ccc(N=C(SSC(=Nc2ccc(OC)cc2)c2ccc([N+](=O)[O-])o2)c2ccc([N+](=O)[O-])o2)cc1
- TGI [1]: 3.26 µM
- TGI [2]: 3.49 µM
- TGI [56]: 7.07 µM
- TGI [3]: 2.94 µM
- TGI [4]: 7.71 µM
- TGI [5]: 2.92 µM
- TGI [6]: 3.26 µM
- TGI [7]: 3.01 µM
- TGI [57]: > 21.9 µM
- TGI [59]: > 21.7 µM
- TGI [8]: 37.3 µM
- TGI [9]: 4.2 µM
- TGI [10]: 4.18 µM
- TGI [11]: 11.1 µM
- TGI [12]: > 24.3 µM
- TGI [13]: 3.93 µM
- TGI [15]: 5.4 µM
- TGI [16]: 3.22 µM
- TGI [17]: 5.05 µM
- TGI [18]: > 100 µM
- TGI [58]: 3.47 µM
- TGI [19]: > 100 µM
- TGI [20]: 25.8 µM
- TGI [21]: 4.87 µM
- TGI [22]: > 22.5 µM
- TGI [23]: 3.2 µM
- TGI [24]: 4.73 µM
- TGI [25]: 6.14 µM
- TGI [26]: 1.62 µM
- TGI [27]: 12.7 µM
- TGI [28]: > 19.7 µM
- TGI [29]: 2.6 µM
- TGI [31]: 2.92 µM
- TGI [32]: 4.98 µM
- TGI [33]: 2.9 µM
- TGI [34]: 2.79 µM
- TGI [35]: 4.1 µM
- TGI [36]: 4.2 µM
- TGI [37]: 2.03 µM
- TGI [38]: 6.7 µM
- TGI [40]: 5.87 µM
- TGI [41]: 7.33 µM
- TGI [42]: > 25.3 µM
- TGI [43]: 19.5 µM
- TGI [44]: > 19.9 µM
- TGI [45]: 5.43 µM
- TGI [46]: 2.92 µM
- TGI [47]: 5.53 µM
- TGI [48]: 6.41 µM
- TGI [49]: 4.14 µM
- TGI [50]: 7.55 µM
- TGI [51]: > 31.3 µM
- TGI [52]: 3.16 µM
- TGI [53]: 0.953 µM
- TGI [54]: 5.01 µM
